# Experimental data taken from patent US11052142B2, “Modified endotoxic bacteria lipopolysaccharide (variants), combination of modified lipopolysaccharides (variants) and, containing same, a vaccine (variants) and a pharmaceutical composition (variants)” (priority 2013, dated 2021).
# Where two headings read alike, the source gives them in different places.
# What was measured:
# [1] = test system: TNF-α; assay: In vivo production of TNF-α in blood serum after i.v. administration to mice (data from patent RU 2154068)
# From the text: In this case the vertical axis represents the values for TNF-α concentrations (pg/mL) and the values for IL-6 concentrations (ng/mL). The horizontal axis represents (A and B) the values for injection dose of preparation OM174 (mg/kg) to mice. The vertical axis (C) represents the value for injection dose of LPS ([…]; positive control) and saline solution (0.85% NaCl solution; negative control) to mice.
# The solid lines represent the lines of extrapolation for the values of doses for OM174: 0.20; 2.00; 2.01; 3.40 and 28.10 (A and B) and the values of doses for Westphal LPS E coli O:111B4: 0.002; 0.020; 0.200 and 2.000 (C).
# According to data from patent RU 2154068, tri-acylated and tetra-acylated lipids A of E. coli, H. influenzae and P. aeruginosa are powerful inducers of mediator of endotoxin reaction—TNF-α. Table 1 represents data extrapolated from graphs on FIG. 1 (A, B, C) relating to in vivo TNF-α production in serum after i.v. administration of tri-acylated lipid A (3-acLA) of E. coli OM-174 and Westphal LPS E. coli O:111B4 to mice. Only 10-fold difference was detected for induction of TNF-α in vivo between E. coli OM-174 tri-acylated lipid A and commercially available endotoxin Westphal LPS E. coli O:111 B4, it is evidence that there is essential endotoxicity of E. coli tri-acetylated lipid A, excluding its use both as vaccine or vaccine component (adjuvant).
# [2] = test system: TNF-α; conditions: mice, i.v., extrapolated from graphs of RU 2154068, cited from earlier work
smiles,measurement,setting,value
CCCCCCCCCCCC(=O)O[C@H](CCCCCCCCCCC)CC(=O)N[C@H]1[C@H](OC[C@H]2O[C@H](OP(=O)(O)O)[C@H](NC(=O)C[C@H](O)CCCCCCCCCCC)[C@@H](O)[C@@H]2O)O[C@H](CO)[C@@H](OP(=O)(O)O)[C@@H]1O [3-acLA E. coli - OM174],difference for induction of TNF-α in vivo versus Westphal LPS E. coli O:111 B4,[1],10 fold
same,TNF-α concentration,[2]; dose 0.2 mg/kg,328 pg/mL
same,TNF-α concentration,[2]; dose 2.0 mg/kg,1644 pg/mL
same,TNF-α concentration,[2]; dose 2.01 mg/kg,1416 pg/mL
same,TNF-α concentration,[2]; dose 3.4 mg/kg,2000 pg/mL
same,TNF-α concentration,[2]; dose 28.1 mg/kg,2750 pg/mL
